The target in data set [1] is T1, full-length His-tagged IL-17F protein (Homo sapiens, UniProt Q96PD4).
T1 construct: Full-length His-tagged IL-17F protein (ab167911, Abcam) was serially diluted in Wash Buffer; purchased Abcam ab167911
T1 sequence (Q96PD4 31-163): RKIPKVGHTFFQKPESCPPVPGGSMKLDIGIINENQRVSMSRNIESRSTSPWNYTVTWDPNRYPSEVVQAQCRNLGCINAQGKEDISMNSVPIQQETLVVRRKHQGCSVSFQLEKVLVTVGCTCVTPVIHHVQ
In words: Sandwich ELISA: IL-17F captured by ligand immobilized on NeutrAvidin plate. It is filed as binding. The settings on record: for binding affinity compared, in words: sandwich ELISA. The protocol: Sandwich ELISA. A black 96-well NeutrAvidin Coated High Binding Capacity plate (15510, Pierce) was coated with 2 μM macrocyclic peptide ligand in TBS (25 mM Tris-HCl, 150 mM NaCl, pH 7.6) for 2 h at room temperature. Biotinylated monoclonal anti-IL17F (TA319597, Origene) was coated at 4 μg/mL in TBS as a control. The plate was aspirated and then washed with TBS (5×) and Wash Buffer (0.05% (v/v) Tween-20 in PBS, 1×). Full-length His-tagged IL-17F protein (ab167911, Abcam) was serially diluted in Wash Buffer (from 800 to 0 nM) and incubated in the designated microwells for 90 min at room temperature. Microwells were aspirated and subsequently washed with Wash Buffer (10×). To detect the bound IL-17F protein, Alkaline Phosphatase (AP)-conjugated Anti-6X His tag® antibody [HIS-1] (ab49746, Abcam) was prepared at 1:10,000 dilution and added to the microwells for 1 h at room temperature. The plate was aspirated and washed with Wash Buffer (11×). AttoPhos® AP Fluorescent Substrate System (S1000, Promega) was employed to develop the microwells. Using an excitation wavelength of 430 nm, fluorescent emission at 535 nm was recorded by Beckman Coulter DTX880 photometer. Titration curves were fit using a four-parameter regression curve fitting program (Origin 8.5) to determine EC50 values.
(§1) For these assays, a dilution series of full-length His-tagged IL-17F protein was captured using the macrocyclic peptide ligands immobilized on a NeutrAvidin-coated plate.
Sandwich ELISA. These assays were performed using the same protocol that was used to evaluate the IL-17F Epitope1 targeted ligands.
as §1
(In an ELISA, binding on a coated surface is turned into a signal by an enzyme label.)

The subject of the next data set is trypsin. In words: Trypsin protease digestion, analytical HPLC. It is filed as in vitro ADME. The settings on record: trypsin 1 h at 37° C., analytical HPLC at 215 nm. On the procedure: Bi-LF Biotin-PEG3-Cy(RSYNKX1X2) (SEQ ID NO:102)-PEG3-Cy(RRATSX1X2) (SEQ ID NO:83) (X1=azidolysine and X2=propargylglycine) was incubated with trypsin to study its susceptibility to protease digestion. Trypsin can cleave peptides and proteins on the C-terminal side of lysine and arginine L-amino acids. For this assay, test compounds were treated with trypsin protease (1 h at 37° C.) or left untreated as a control. In an Eppendorf tube, 4 μL of trypsin solution (10 μg/mL in 1 mM HCl) and 80 pmol of biligand were added to TBS for a final volume of 20 μL. The solution was incubated for 1 h at 37° C., and then further diluted with 80 μL TBS. 50 μL of each sample was injected into a Dionex Ultimate 3000 series analytical HPLC fitted with a Phenomenex Luna-C18 column, and eluted with a gradient of 10%-62% acetonitrile in 0.1% TFA (v/v) in water over 45 min. The samples were monitored at 215 nm.

Data set [2] concerns the target T2, IL-17F protein (Homo sapiens, UniProt Q96PD4).
T2 construct: His tag
T2 sequence (Q96PD4 31-163): T1 sequence (Q96PD4 31-163)
In words: IL-17F binding in a background of human serum, surface-immobilized ligand. The settings on record: for IL-17F binding efficiency in human serum: up to 10% (v/v) serum. An excerpt: Binding to IL-17F in 25% (v/v) serum is also detectable.
Target binding in biologically complex samples was interrogated by contacting surface-immobilized macrocycles with IL-17F protein in a background of human serum.

Data set [3] has as its target T3, His-tagged IL-17F Epitope1 (C48S) (Homo sapiens, UniProt Q96PD4).
T3 construct: made in house; host or cells: chemical peptide synthesis
As to the kind of experiment: Assay to determine orientation of macrocycle binding to IL-17F Epitope1 (point ELISA with His-tagged epitopes). The note with it: epitope 2 μM, unscrambled. On the procedure:
(§2) Assay to determine orientation of macrocycle binding to IL-17F Epitope1. A black 96-well NeutrAvidin Coated High Binding Capacity plate (15510, Pierce) was coated with 2 μM macrocyclic peptide ligand in TBS (pH 7.6) for 2 h at room temperature. Biotinylated monoclonal anti-IL17F (TA319597, Origene) was coated at 4 μg/mL in TBS as a control. The plate was aspirated and then washed with TBS (5×) and Wash Buffer (0.05% (v/v) Tween-20 in PBS, 1×). Chemically synthesized His-tagged IL-17F epitopes were prepared at 2 μM in Wash Buffer and incubated in the designated microwells for 90 min at room temperature. Wash Buffer without epitope was added as a control. Microwells were aspirated and subsequently washed with Wash Buffer (10×). To detect the bound IL-17F epitopes, Alkaline Phosphatase (AP)-conjugated Anti-6X His tag® antibody [HIS-1] (ab49746, Abcam) was prepared at 1:10,000 dilution and added to the microwells for 1 h at room temperature. The plate was aspirated and washed with Wash Buffer (11×). AttoPhos® AP Fluorescent Substrate System (S1000, Promega) was employed to develop the microwells. Using an excitation wavelength of 430 nm, fluorescent emission at 535 nm was recorded by Beckman Coulter DTX880 photometer. Data are shown after subtraction of the no-epitope background.
(§3) For this experiment, the IL-17F Epitope1 was re-synthesized with a His6 assay handle and C48S substitution instead of a click handle. Two additional His-tagged IL-17F epitopes were synthesized to contain strategic scrambling of the sequences either N-terminal or C-terminal to C48S (scrambled residues are shown in italics): • 1) His6-PEG3-[…] (SEQ ID NO:39); • 2) His6-PEG3-[…] (scrambled C-terminal to click handle; SEQ ID NO:40); • 3) His6-PEG3-[…] (scrambled N-terminal to click handle; SEQ ID NO:41).
(§4) In anticipation of forming a biligand with LF2 (SEQ ID NO: 28), it was important to gain insight on whether LF1 (SEQ ID NO:9) preferentially binds to the N- or C-terminus of Epitope1. Therefore, two His-tagged IL-17F epitopes were generated, scrambling the sequence either N-terminal or C-terminal to the location of the azide click handle. His6 assay handle and C48S substitution instead of a click handle. The scrambled amino acids are shown in italics. MALDI-TOF MS (m/z): calculated for C116H163N37O31 (M+H) 2571.23; found 2571.57.

The test system of data set [4] is His-tagged IL-17F Epitope1 (C48S). Described as above. The settings on record: epitope 2 μM. The protocol:
as §2, §3, §4

For data set [5], the target named is T2, IL-17F protein. In words: Fluorescence polarization titration in solution. The class given is binding. On the procedure: The bonding affinities of the macrocycles were tested in solution by titrating the recombinant human IL-17F protein against fluorescein 5-isothiocyanate (5-FITC)-tagged macrocycles by fluorescence polarization. […] The structure of LA3 (SEQ ID NO:44), the lead macrocycle developed against IL-17A Epitope3, is shown below (X=PEG3-biotin). MALDI-TOF MS (m/z): calcd. for C62H98N22O13S (M+H) 1391.74; found 1392.36.

Entries after “also recorded” stand apart in the source; their conditions may differ. Bridge positions count the residues as written; N and C are the ends. Square brackets hold non-standard residues; d marks the D form. Triazole bridges read from a SMILES are 1,4-linked. Peptide text beside a SMILES is read from it. * marks the point of attachment. ξ: configuration not given here. Biotinyl(3aR,4R,6aS) = O=C1N[C@@H]2[C@@H](CS[C@@H]2CCCCC(=O)*)N1; X1 = O=C(CCCCC1SC[C@H]2NC(=O)N[C@@H]12)NCCCOCCOCCOCCCN*; Lys(N3) = [N-]=[N+]=NCCCC[C@H](N)C(=O)O; dThr(3ξ) = CC(O)[C@@H](N)C(=O)O; Thr(3ξ) = CC(O)[C@H](N)C(=O)O; AEEEA = NCCOCCOCCOCC(=O)O; Pra = C#CC[C@H](N)C(=O)O

Consider `CC(O)[C@H]1NC(=O)[C@@H](C)NC(=O)[C@@H](CCCNC(=N)N)NC(=O)[C@@H](CCCNC(=N)N)NC(=O)[C@@H](NC(=O)COCCOCCOCCNC(=O)[C@@H]2CCCCn3cc(nn3)C[C@H](NC(=O)COCCOCCOCCNC(=O)CCCC[C@H]3SC[C@H]4NC(=O)N[C@H]43)C(=O)N[C@H](CCCNC(=N)N)C(=O)N[C@H](CO)C(=O)N[C@H](Cc3ccc(O)cc3)C(=O)N[C@H](CC(N)=O)C(=O)N[C@H](CCCCN)C(=O)N2)Cc2cn(nn2)CCCC[C@@H](C(N)=O)NC(=O)[C@@H](CO)NC1=O` (stereo partly drawn) [Bi-LG, Biotin-PEG3-Cy(rsynkX1X2)-PEG3-Cy(rratsX1X2)] ({Biotinyl(3aR,4R,6aS)-AEEEA}-[Pra][dR][dS][dY][dN][dK][Lys(N3)][AEEEA][Pra][dR][dR][dA][dThr(3ξ)][dS][Lys(N3)]-NH2; triazole 1-7, 9-15), for which the “binding affinity compared, in words” value in data set [1] (IL-17F) is “slightly weaker binding”. In addition, the “susceptibility to trypsin digestion” value with trypsin is “resistance to trypsin digestion; also recorded: resistant to trypsin digestion”.
Consider `CC(O)[C@@H]1NC(=O)[C@H](C)NC(=O)[C@@H](CCCNC(=N)N)NC(=O)[C@@H](CCCNC(=N)N)NC(=O)[C@@H](NC(=O)COCCOCCOCCNC(=O)[C@@H]2CCCCn3cc(nn3)C[C@H](NC(=O)COCCOCCOCCNC(=O)CCCC[C@H]3SC[C@H]4NC(=O)N[C@H]43)C(=O)N[C@H](CCCNC(=N)N)C(=O)N[C@@H](CO)C(=O)N[C@@H](Cc3ccc(O)cc3)C(=O)N[C@@H](CC(N)=O)C(=O)N[C@H](CCCCN)C(=O)N2)Cc2cn(nn2)CCCC[C@@H](C(N)=O)NC(=O)[C@H](CO)NC1=O` (stereo partly drawn) [Bi-LS, Biotin-PEG3-Cy(rSYNkX1X2)-PEG3-Cy(rrATSX1X2)] ({Biotinyl(3aR,4R,6aS)-AEEEA}-[Pra][dR]SYN[dK][Lys(N3)][AEEEA][Pra][dR][dR]A[Thr(3ξ)]S[Lys(N3)]-NH2; triazole 1-7, 9-15), for which, in data set [1] (IL-17F), the “binding affinity compared, in words” value was “slightly weaker binding”. The “susceptibility to trypsin digestion” value in the data set on trypsin was “resistant to trypsin digestion”.
On to `CC(O)[C@@H]1NC(=O)[C@H](C)NC(=O)[C@H](CCCNC(=N)N)NC(=O)[C@H](CCCNC(=N)N)NC(=O)[C@@H](NC(=O)COCCOCCOCCNC(=O)[C@@H]2CCCCn3cc(nn3)C[C@H](NC(=O)COCCOCCOCCNC(=O)CCCC[C@H]3SC[C@H]4NC(=O)N[C@H]43)C(=O)N[C@@H](CCCNC(=N)N)C(=O)N[C@@H](CO)C(=O)N[C@@H](Cc3ccc(O)cc3)C(=O)N[C@@H](CC(N)=O)C(=O)N[C@@H](CCCCN)C(=O)N2)Cc2cn(nn2)CCCC[C@@H](C(N)=O)NC(=O)[C@H](CO)NC1=O` (stereo partly drawn) [Biotin-PEG3-Cy(RSYNKX1X2)-PEG3-Cy(RRATSX1X2)] ({Biotinyl(3aR,4R,6aS)-AEEEA}-[Pra]RSYNK[Lys(N3)][AEEEA][Pra]RRA[Thr(3ξ)]S[Lys(N3)]-NH2; triazole 1-7, 9-15), for which, in data set [1] (IL-17F), the “bivalent interaction stronger than the other biligands” value is “at least 16 times” and the “improvement in affinity relative to the individual PCC macrocyclic ligands” value is reported as above 100 fold. The “binding to IL-17F in human serum” value on IL-17F protein [2] (25% (v/v) serum) is listed as “detectable”. For the same compound, the “IL-17F binding efficiency in human serum” value on IL-17F protein [2] is recorded as “no reduction in binding efficiency”. In addition, the “susceptibility to trypsin digestion” value with trypsin is listed as “trypsin digestion indeed occurred”.
For `C[C@@H]1NC(=O)[C@H](CCCNC(=N)N)NC(=O)[C@H](CCCNC(=N)N)NC(=O)[C@@H](N)Cc2cn(nn2)CCCC[C@@H](C(=O)NCCCOCCOCCOCCCNC(=O)CCCCC2SC[C@H]3NC(=O)N[C@@H]23)NC(=O)[C@H](CO)NC(=O)[C@H](CCC(N)=O)NC1=O` (stereo partly drawn) [Cy(RRAQSX1X2), Cy(RRAQSX1X2)-PEG3-biotin] (H-[Pra]RRAQS[Lys(N3)]-X1; triazole 1-7), in data set [3], the “ELISA signal for His-tagged IL-17F Epitope1 (C48S)” value was “positive ELISA signals”. Moreover, in data set [4], the “ELISA signal for epitope scrambled C-terminal to click handle” value is listed as “positive ELISA signals” and the “binding to epitope scrambled N-terminal to click handle” value is “Binding was destroyed”.
As to `C=C1N[C@@H](CCCCN)C(=O)N[C@H](C(N)=O)CCCCn2cc(nn2)C[C@H](NC(=O)COCCOCCOCCNC(=O)CCCC[C@@H]2SC[C@@H]3NC(=O)N[C@@H]32)C(=O)N[C@@H](CCCNC(=N)N)C(=O)N[C@@H](CO)C(=O)N[C@@H](Cc2ccc(O)cc2)C(=O)N[C@H]1CC(N)=O` [Cy(RSYNKX1X2), Biotin-PEG3-Cy(RSYNKXIX2)], the Kd (as a rule, the constant that tells how readily two partners part at equilibrium) in data set [1] (against His-tagged IL-17F) worked out at 0.015 µM; on IL-17F protein [5] (5-FITC-tagged macrocycles, in solution) it was 0.028 ± 0.009 µM. Besides, the “binding affinity compared, in words” value in data set [1] (IL-17F) is “exceeds the binding affinity of the similarly assayed biotinylated monoclonal anti-IL17F”. In addition, a half-maximal effect in data set [1] (surface-immobilized ligand, dilution series of His-tagged IL-17F) (EC50) was put at 0.015 ± 0.005 µM. Moreover, the “standard Gibbs free energy change (ΔG°=RTlnKD) of binding to IL-17F” value on IL-17F protein [5] (25° C.) is -10.3 kcal/mol. The “IL-17F binding efficiency in human serum” value on IL-17F protein [2] is recorded as “reduced intensity”.
